Experimental data published in patent publication US20170355705A1 (GlaxoSmithKline Intellectual Property (No.2) Limited, priority 2014, published 2017).

Biological target: T1, SIRT1 (Homo sapiens, UniProt Q96EB6)
T1 sequence (Q96EB6 1-747): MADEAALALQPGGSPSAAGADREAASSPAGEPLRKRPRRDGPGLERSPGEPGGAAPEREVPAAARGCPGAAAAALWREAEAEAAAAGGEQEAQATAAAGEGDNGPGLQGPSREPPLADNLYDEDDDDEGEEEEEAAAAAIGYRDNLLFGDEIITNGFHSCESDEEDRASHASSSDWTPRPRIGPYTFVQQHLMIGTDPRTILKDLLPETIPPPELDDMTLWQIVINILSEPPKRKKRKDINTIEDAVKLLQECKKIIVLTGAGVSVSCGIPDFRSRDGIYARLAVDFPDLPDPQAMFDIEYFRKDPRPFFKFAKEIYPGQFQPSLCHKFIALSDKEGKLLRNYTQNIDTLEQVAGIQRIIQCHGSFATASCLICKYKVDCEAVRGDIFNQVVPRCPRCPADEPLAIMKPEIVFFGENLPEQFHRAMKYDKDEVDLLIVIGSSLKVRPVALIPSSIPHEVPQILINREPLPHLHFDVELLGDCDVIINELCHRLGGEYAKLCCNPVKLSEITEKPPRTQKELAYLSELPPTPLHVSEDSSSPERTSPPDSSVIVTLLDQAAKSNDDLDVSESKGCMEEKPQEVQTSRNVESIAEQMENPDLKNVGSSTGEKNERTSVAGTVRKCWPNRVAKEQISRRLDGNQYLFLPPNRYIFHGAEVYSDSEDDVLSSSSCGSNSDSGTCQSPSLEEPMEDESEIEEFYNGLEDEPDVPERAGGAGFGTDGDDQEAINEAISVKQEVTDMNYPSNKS
Assay: Trp mass spectrometry assay of SIRT1 activity (EC1.5, percent maximum activation)
Format: biochemical
Details: Trp mass spectrometry assay; for TRP Activity (EC1.5): EC1.5 = concentration giving 150% activation of SIRT1
How it was run: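 Mass spectrometry read-out (OAADPR formed, or deacetylated Trp peptide) after a 25 min NAD-dependent deacetylation by E. coli-expressed His-SIRT1, stopped with formic acid.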

[1] = percent maximum activation of SIRT1
[2] = 0.5 μM peptide substrate, 120 μM βNAD+, 10 nM SIRT1, 25 minutes at 25° C.

Compound	TRP Activity (EC1.5)	TRP MAX RESP (percent maximum fold activation) [1]	TRP Activity (EC1.5, concentration of test compound that results in 150% activation of SIRT1) [2]	TRP MAX RESP (percent maximum fold activation) [2]
Cc1cc(-c2ccc3c(n2)N(C(=O)N2CCOCC2)[C@H]2CCN3C2)ccn1 [Example 150, ((4S)-7-(2-methylpyridin-4-yl)-3,4-dihydro-1,4-methanopyrido[2,3-b][1,4]diazepin-5(2H)-yl)(morpholino)methanone]	C (EC1.5>25 μM)	B (Fold Activation <150%)	–	–
Cc1ccc(-c2ccc3c(n2)N(C(=O)Nc2ccnc(O[C@H]4CCOC4)n2)[C@H]2CCN3C2)cn1 [Example 227, (4S)-7-(6-methylpyridin-3-yl)-N-(2-(((S)-tetrahydrofuran-3-yl)oxy)pyrimidin-4-yl)-3,4-dihydro-1,4-methanopyrido[2,3-b][1,4]diazepine-5(2H)-carboxamide]	–	–	B (EC1.5 1-25 μM)	A (Fold activation ≧150%)
Cc1cc(-c2ccc3c(n2)N(C(=O)Nc2cnccn2)[C@H]2CCN3C2)c(F)cn1 [Example 217, (4S)-7-(5-fluoro-2-methylpyridin-4-yl)-N-(pyrazin-2-yl)-3,4-dihydro-1,4-methanopyrido[2,3-b][1,4]diazepine-5(2H)-carboxamide]	–	–	B (EC1.5 1-25 μM)	A (Fold activation ≧150%)
O=C(Nc1cccnc1)N1c2nc(N3CCOC[C@@H]3CO)ccc2N2CC[C@H]1C2 [Example 203, (4S)-7-((S)-3-(hydroxymethyl)morpholino)-N-(pyridin-3-yl)-3,4-dihydro-1,4-methanopyrido[2,3-b][1,4]diazepine-5(2H)-carboxamide]	–	–	C (EC1.5>25 μM)	B (Fold Activation <150%)
CC1CNCCN1c1ccc2c(n1)N(C(=O)Nc1cnccn1)[C@H]1CCN2C1 (single isomer, unassigned) [Example 228]	–	–	C (EC1.5>25 μM)	B (Fold Activation <150%)
O=C(Nc1cccnc1)N1c2nc(-c3ccc(C(F)(F)F)nc3)ccc2N2CC[C@H]1C2 [Example 224, (4S)-N-(pyridin-3-yl)-7-(6-(trifluoromethyl)pyridin-3-yl)-3,4-dihydro-1,4-methanopyrido[2,3-b][1,4]diazepine-5(2H)-carboxamide]	–	–	B (EC1.5 1-25 μM)	A (Fold activation ≧150%)
Cc1cc(-c2ccc3c(n2)N(C(=O)Nc2cnccn2)C2CCN3C2)ccn1 (stereo in doubt) [Example 149, (4R)-7-(2-methylpyridin-4-yl)-N-(pyrazin-2-yl)-3,4-dihydro-1,4-methanopyrido[2,3-b][1,4]diazepine-5(2H)-carboxamide]	B (EC1.5 1-25 μM)	A (Fold activation ≧150%)	–	–
Cc1cc(-c2nc3c(cc2Cl)N2CC[C@@H](C2)N3C(=O)Nc2ccnc(OC[C@H](O)CO)c2)ccn1 [Example 39, (4S)-8-chloro-N-(2-((R)-2,3-dihydroxypropoxy)pyridin-4-yl)-7-(2-methylpyridin-4-yl)-3,4-dihydro-1,4-methanopyrido[2,3-b][1,4]diazepine-5(2H)-carboxamide]	B (EC1.5 1-25 μM)	A (Fold activation ≧150%)	–	–
Cc1cc(-c2nc3c(cc2Cl)N2CC[C@@H](C2)N3C(=O)Nc2cc(F)cc(-c3cccnc3)c2)ccn1 [Example 47, (4S)-8-chloro-N-(3-fluoro-5-(pyridin-3-yl)phenyl)-7-(2-methylpyridin-4-yl)-3,4-dihydro-1,4-methanopyrido[2,3-b][1,4]diazepine-5(2H)-carboxamide]	B (EC1.5 1-25 μM)	A (Fold activation ≧150%)	–	–
Cn1ccc(-c2ccc3c(n2)N(C(=O)Nc2cnccn2)[C@H]2CCN3C2)cc1=O [Example 264]	–	–	–	A (Fold activation ≧150%)
Cc1cc(-c2ccc3c(n2)N(C(=O)Nc2ncn(C)n2)[C@H]2CCN3C2)ccn1 [Example 143, (4S)-N-(1-methyl-1H-1,2,4-triazol-3-yl)-7-(2-methylpyridin-4-yl)-3,4-dihydro-1,4-methanopyrido[2,3-b][1,4]diazepine-5(2H)-carboxamide]	B (EC1.5 1-25 μM)	A (Fold activation ≧150%)	–	–
O=C(Nc1cnc(OC[C@H](O)CO)nc1)N1c2nc(-c3cccc(C(F)(F)F)c3)c(Cl)cc2N2CC[C@H]1C2 [Example 66, (4S)-8-chloro-N-(2-((R)-2,3-dihydroxypropoxy)pyrimidin-5-yl)-7-(3-(trifluoromethyl)phenyl)-3,4-dihydro-1,4-methanopyrido[2,3-b][1,4]diazepine-5(2H)-carboxamide]	B (EC1.5 1-25 μM)	A (Fold activation ≧150%)	–	–
Cc1cc(-c2nc3c(cc2Cl)N2CC[C@@H](C2)N3C(=O)Nc2cnc(OC[C@@H](O)CO)cn2)ccn1 [Example 40, (4S)-8-chloro-N-(5-((S)-2,3-dihydroxypropoxy)pyrazin-2-yl)-7-(2-methylpyridin-4-yl)-3,4-dihydro-1,4-methanopyrido[2,3-b][1,4]diazepine-5(2H)-carboxamide]	B (EC1.5 1-25 μM)	A (Fold activation ≧150%)	–	–
O=C(O)c1cc(-c2ccc3c(n2)N(C(=O)Nc2cnccn2)[C@H]2CCN3C2)ccn1 [Example 177, 4-((4S)-5-(pyrazin-2-ylcarbamoyl)-2,3,4,5-tetrahydro-1,4-methanopyrido[2,3-b][1,4]diazepin-7-yl)picolinic acid]	C (EC1.5>25 μM)	B (Fold Activation <150%)	–	–
O=C(Nc1cccc(OCCO)n1)N1c2nc(-c3cccc(C(F)(F)F)c3)c(Cl)cc2N2CC[C@H]1C2 [Example 79, (4S)-8-chloro-N-(6-(2-hydroxyethoxy)pyridin-2-yl)-7-(3-(trifluoromethyl)phenyl)-3,4-dihydro-1,4-methanopyrido[2,3-b][1,4]diazepine-5(2H)-carboxamide]	A (EC1.5<1 μM)	A (Fold activation ≧150%)	–	–
O=C(Nc1cnccn1)N1c2nc(N3CCC(C(F)(F)F)CC3)ccc2N2CC[C@H]1C2 [Example 191, (4S)-N-(pyrazin-2-yl)-7-(4-(trifluoromethyl)piperidin-1-yl)-3,4-dihydro-1,4-methanopyrido[2,3-b][1,4]diazepine-5(2H)-carboxamide]	A (EC1.5<1 μM)	A (Fold activation ≧150%)	–	–
Cl.O=C(Nc1cncc(OC[C@H](O)CO)n1)N1c2nc(-c3cccc(C(F)(F)F)c3)c(Cl)cc2N2CC[C@H]1C2 [Example 62, (4S)-8-chloro-N-(6-((R)-2,3-dihydroxypropoxy)pyrazin-2-yl)-7-(3-(trifluoromethyl)phenyl)-3,4-dihydro-1,4-methanopyrido[2,3-b][1,4]diazepine-5(2H)-carboxamide, Hydrochloride]	A (EC1.5<1 μM)	A (Fold activation ≧150%)	–	–
